Test results reported in ChEMBL document CHEMBL5653631, “A Potent and Selective ULK1 Inhibitor Suppresses Autophagy and Sensitizes Cancer Cells to Nutrient Stress” (iScience, 2018).
Blank lines part the entries; values can stand above or below the compound they belong to.

Key:
[1] = molecular target: Casein kinase II subunit alpha' (Homo sapiens) (UniProt P19784); assay: Inhibition of human recombinant CK2a2 at 500 nM related to control ULK1
Homo sapiens = species: Homo sapiens; assay: Inhibition of human recombinant ABL at 500 nM related to control ULK1
[2] = molecular target: T1, Mitogen-activated protein kinase kinase kinase kinase 2 (Homo sapiens) (UniProt Q12851); assay: Inhibition of human recombinant GCK at 500 nM related to control ULK1
T1 sequence (whole entry): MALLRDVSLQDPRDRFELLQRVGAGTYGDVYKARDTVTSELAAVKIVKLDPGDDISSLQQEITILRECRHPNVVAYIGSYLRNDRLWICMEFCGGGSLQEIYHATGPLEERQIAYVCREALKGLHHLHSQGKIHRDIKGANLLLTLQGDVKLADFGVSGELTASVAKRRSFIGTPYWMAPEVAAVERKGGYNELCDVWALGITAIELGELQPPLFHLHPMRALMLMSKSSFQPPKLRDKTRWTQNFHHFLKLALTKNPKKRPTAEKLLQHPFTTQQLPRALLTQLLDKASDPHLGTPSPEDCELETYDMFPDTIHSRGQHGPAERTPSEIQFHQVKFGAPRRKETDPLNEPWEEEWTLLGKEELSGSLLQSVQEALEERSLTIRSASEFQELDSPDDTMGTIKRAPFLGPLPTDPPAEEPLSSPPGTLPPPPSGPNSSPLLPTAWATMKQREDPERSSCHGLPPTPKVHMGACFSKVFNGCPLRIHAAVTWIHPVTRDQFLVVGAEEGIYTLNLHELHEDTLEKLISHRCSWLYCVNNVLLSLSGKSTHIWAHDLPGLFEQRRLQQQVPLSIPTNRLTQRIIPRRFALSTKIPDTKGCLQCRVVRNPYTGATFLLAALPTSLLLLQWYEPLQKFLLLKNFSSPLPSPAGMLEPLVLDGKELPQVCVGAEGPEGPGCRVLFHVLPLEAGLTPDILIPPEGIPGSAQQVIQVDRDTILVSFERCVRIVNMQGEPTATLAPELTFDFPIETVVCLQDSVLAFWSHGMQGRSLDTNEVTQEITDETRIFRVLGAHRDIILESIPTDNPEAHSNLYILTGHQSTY

[3] = molecular target: Calcium/calmodulin-dependent protein kinase type II subunit gamma (Homo sapiens) (UniProt Q13555); assay: Inhibition of human recombinant CaMK2g at 500 nM related to control ULK1
Chain of Calcium/calmodulin-dependent protein kinase type II subunit gamma (Homo sapiens) (Q13555 whole entry): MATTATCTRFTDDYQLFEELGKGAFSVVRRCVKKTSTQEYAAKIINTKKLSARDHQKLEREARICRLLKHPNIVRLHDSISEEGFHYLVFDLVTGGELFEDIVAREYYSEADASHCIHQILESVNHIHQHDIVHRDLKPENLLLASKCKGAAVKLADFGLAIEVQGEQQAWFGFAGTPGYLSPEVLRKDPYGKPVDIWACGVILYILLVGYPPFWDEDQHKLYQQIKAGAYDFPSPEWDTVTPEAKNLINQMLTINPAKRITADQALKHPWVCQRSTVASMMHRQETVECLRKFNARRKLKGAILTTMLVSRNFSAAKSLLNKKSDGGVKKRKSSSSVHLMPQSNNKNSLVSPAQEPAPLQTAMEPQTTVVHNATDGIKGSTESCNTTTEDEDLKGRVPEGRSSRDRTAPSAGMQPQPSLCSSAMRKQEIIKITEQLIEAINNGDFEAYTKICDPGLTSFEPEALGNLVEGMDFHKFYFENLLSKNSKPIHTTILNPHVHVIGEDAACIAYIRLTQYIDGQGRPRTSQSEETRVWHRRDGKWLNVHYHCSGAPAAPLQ

[4] = molecular target: DNA-PK/Ku70/Ku85 (Homo sapiens) (UniProt P78527+P12956+P13010); assay: Inhibition of human recombinant DNAPK at 500 nM in presence of ATP by radiometric assay relative to control; assay type: protein-complex assay
[5] = molecular target: Dual specificity mitogen-activated protein kinase kinase 2 (Homo sapiens) (UniProt P36507); assay: Inhibition of human recombinant MAP2K2 at 40 nM in presence of ATP by radiometric assay relative to control
Chain of Dual specificity mitogen-activated protein kinase kinase 2 (Homo sapiens) (P36507 whole entry): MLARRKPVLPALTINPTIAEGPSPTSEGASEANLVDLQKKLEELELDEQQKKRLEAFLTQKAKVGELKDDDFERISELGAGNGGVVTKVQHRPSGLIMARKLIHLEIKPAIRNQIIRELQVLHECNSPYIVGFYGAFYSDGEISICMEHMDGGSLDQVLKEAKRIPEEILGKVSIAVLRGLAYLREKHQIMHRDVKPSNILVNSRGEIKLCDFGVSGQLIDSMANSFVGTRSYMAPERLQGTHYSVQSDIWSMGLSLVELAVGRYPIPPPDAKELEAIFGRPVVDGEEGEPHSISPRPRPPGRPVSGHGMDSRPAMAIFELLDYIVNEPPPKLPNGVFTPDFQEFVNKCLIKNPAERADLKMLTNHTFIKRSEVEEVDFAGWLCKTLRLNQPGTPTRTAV

[6] = molecular target: T2, Receptor-interacting serine/threonine-protein kinase 1 (Homo sapiens) (UniProt Q13546); assay: Inhibition of human recombinant RIPK1 at 40 nM in presence of ATP by radiometric assay relative to control
T2 sequence (whole entry): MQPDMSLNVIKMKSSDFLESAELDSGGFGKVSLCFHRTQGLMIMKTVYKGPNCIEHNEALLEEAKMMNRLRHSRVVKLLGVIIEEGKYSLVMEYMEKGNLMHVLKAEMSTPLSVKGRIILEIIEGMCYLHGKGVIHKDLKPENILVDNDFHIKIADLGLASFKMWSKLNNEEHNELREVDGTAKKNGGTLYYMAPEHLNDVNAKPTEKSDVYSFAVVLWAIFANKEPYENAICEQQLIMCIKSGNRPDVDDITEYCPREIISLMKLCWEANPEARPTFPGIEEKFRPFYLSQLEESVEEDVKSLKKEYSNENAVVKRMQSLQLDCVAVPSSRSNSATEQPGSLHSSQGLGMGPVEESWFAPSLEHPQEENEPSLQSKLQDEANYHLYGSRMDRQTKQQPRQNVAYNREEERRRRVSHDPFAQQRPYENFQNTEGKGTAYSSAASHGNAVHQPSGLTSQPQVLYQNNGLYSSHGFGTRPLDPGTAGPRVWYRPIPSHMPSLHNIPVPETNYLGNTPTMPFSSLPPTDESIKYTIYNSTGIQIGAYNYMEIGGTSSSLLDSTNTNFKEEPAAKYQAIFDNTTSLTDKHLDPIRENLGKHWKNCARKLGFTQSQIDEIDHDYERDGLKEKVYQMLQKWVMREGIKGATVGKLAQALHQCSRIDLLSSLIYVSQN

[7] = molecular target: Vascular endothelial growth factor receptor 1 (Homo sapiens) (UniProt P17948); assay: Inhibition of human recombinant FLT1 at 40 nM in presence of ATP by radiometric assay relative to control
Chain of Vascular endothelial growth factor receptor 1 (Homo sapiens) (P17948 whole entry): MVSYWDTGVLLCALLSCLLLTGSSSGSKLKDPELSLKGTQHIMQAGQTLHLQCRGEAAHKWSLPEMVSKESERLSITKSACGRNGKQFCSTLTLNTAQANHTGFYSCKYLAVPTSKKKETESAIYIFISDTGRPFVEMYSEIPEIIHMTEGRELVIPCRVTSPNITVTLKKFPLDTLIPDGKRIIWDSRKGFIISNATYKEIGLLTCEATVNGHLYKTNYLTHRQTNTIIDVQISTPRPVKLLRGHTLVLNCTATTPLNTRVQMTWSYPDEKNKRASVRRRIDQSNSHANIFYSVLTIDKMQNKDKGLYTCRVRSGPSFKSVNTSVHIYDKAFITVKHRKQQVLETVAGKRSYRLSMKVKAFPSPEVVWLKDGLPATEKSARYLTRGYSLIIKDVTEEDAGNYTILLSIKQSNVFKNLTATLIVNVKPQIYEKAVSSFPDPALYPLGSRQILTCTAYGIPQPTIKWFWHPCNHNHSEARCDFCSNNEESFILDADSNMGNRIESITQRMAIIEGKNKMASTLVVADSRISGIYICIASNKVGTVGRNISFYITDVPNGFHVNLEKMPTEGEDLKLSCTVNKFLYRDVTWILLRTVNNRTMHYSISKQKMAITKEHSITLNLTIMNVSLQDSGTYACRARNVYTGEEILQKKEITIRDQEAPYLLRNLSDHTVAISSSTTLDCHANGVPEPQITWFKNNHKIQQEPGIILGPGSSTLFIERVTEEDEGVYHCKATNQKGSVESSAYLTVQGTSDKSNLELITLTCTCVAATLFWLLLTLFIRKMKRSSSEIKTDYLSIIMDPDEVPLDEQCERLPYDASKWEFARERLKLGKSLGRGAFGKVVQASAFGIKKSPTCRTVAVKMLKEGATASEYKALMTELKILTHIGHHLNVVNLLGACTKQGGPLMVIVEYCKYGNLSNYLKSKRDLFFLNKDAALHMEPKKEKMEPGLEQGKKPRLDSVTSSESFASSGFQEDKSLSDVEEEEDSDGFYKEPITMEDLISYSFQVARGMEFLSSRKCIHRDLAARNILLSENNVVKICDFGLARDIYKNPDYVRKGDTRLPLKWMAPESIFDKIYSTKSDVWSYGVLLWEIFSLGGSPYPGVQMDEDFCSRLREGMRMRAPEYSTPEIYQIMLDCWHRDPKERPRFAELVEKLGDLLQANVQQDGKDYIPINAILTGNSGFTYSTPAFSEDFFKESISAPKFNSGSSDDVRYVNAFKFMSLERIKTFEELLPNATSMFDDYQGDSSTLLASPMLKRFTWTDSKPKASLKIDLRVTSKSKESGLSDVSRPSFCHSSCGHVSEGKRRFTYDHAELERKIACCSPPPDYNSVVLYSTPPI

[8] = molecular target: Homeodomain-interacting protein kinase 1 (Homo sapiens) (UniProt Q86Z02); assay: Inhibition of human recombinant HIPK1 at 40 nM related to control ULK1
[9] = molecular target: Protein kinase C delta type (Homo sapiens) (UniProt Q05655); assay: Inhibition of human recombinant PKCd at 40 nM in presence of ATP by radiometric assay relative to control
Chain of Protein kinase C delta type (Homo sapiens) (Q05655 whole entry, looked up): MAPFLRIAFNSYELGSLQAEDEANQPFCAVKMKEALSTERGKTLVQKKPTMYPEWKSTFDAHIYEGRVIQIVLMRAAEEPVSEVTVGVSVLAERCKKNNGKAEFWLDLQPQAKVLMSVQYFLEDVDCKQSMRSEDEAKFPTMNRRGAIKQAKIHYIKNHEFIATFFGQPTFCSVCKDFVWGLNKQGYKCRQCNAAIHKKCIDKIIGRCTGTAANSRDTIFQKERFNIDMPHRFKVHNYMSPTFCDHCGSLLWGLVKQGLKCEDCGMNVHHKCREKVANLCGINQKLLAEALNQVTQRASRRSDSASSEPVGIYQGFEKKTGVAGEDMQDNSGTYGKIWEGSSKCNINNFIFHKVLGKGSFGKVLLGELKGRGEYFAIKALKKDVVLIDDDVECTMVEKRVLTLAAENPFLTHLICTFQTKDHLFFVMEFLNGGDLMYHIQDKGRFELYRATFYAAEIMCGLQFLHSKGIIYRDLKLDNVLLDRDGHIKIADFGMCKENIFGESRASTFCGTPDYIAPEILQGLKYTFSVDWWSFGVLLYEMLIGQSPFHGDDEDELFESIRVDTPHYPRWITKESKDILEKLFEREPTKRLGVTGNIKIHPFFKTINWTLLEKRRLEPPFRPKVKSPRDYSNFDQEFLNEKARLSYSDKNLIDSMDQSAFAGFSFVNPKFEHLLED

[10] = molecular target: Tyrosine-protein kinase Lck (Homo sapiens) (UniProt P06239); assay: Inhibition of human recombinant LCK at 15 nM in presence of ATP by radiometric assay relative to control
Chain of Tyrosine-protein kinase Lck (Homo sapiens) (P06239 2-509 limits assumed): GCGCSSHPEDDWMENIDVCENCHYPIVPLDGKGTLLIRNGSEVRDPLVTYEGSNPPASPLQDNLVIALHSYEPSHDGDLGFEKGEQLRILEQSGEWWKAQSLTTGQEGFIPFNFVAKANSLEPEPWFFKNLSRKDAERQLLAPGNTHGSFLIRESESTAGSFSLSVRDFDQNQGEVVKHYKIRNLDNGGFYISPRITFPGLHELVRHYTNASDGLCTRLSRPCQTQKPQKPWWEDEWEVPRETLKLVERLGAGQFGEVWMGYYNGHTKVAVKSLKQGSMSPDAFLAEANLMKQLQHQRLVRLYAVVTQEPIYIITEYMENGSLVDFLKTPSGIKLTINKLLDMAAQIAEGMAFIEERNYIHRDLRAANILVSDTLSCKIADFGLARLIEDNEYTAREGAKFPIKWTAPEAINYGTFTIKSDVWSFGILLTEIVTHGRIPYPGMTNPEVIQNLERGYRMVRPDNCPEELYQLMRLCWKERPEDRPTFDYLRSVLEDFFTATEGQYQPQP

[11] = molecular target: T3, Mitogen-activated protein kinase kinase kinase 7 (Homo sapiens) (UniProt O43318); assay: Inhibition of human recombinant TAK1 at 15 nM in presence of ATP by radiometric assay relative to control
T3 sequence (whole entry): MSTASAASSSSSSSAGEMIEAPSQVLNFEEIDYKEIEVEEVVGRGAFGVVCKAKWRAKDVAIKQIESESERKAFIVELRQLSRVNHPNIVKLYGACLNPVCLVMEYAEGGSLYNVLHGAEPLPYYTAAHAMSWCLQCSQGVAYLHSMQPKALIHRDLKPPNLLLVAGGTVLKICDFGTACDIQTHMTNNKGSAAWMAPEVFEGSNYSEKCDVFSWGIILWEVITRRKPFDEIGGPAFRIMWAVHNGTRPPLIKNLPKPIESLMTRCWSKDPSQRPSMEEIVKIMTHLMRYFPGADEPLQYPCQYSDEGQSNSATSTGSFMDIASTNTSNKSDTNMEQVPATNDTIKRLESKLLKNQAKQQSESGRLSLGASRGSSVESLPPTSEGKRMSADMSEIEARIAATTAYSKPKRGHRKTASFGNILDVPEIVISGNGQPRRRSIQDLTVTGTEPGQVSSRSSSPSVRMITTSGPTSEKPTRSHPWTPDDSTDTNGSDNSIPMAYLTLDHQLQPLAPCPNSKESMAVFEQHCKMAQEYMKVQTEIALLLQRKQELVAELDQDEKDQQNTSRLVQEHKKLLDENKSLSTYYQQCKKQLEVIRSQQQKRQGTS

[12] = molecular target: Fibroblast growth factor receptor 1 (Homo sapiens) (UniProt P11362); assay: Inhibition of human recombinant FGFR1 at 15 nM in presence of ATP by radiometric assay relative to control
Chain of Fibroblast growth factor receptor 1 (Homo sapiens) (P11362 22-822 limits assumed): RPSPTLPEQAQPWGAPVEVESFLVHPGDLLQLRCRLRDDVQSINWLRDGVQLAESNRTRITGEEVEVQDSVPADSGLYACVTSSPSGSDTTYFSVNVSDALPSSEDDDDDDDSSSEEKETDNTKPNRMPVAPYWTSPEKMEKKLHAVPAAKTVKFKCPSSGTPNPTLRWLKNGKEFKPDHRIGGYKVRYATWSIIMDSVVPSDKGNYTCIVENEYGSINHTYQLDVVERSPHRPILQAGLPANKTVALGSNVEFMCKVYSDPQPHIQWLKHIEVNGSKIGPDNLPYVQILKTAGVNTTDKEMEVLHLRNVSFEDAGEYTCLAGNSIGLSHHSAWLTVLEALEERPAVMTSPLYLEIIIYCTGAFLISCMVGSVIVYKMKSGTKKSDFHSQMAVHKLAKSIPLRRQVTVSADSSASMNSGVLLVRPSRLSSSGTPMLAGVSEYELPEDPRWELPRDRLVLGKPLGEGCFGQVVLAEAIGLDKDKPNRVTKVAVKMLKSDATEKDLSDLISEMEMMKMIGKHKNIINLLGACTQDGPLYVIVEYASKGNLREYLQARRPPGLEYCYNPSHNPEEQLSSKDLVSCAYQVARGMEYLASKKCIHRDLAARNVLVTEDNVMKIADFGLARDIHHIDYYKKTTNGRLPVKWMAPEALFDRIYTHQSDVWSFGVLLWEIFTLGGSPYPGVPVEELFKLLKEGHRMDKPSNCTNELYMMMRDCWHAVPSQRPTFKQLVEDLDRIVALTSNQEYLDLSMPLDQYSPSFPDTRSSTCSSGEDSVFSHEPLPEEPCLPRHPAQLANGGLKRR

Chain of Casein kinase II subunit alpha' (Homo sapiens) (P19784 whole entry, looked up): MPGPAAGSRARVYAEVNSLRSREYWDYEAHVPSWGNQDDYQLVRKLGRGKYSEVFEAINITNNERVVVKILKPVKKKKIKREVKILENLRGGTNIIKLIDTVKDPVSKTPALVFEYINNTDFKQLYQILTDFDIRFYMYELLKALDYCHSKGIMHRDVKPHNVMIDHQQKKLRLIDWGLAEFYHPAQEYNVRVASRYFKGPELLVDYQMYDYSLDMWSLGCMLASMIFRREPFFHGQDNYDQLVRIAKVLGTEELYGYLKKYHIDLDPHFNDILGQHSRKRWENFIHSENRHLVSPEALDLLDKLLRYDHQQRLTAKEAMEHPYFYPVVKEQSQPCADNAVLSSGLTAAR

fold change (FC) [1]: 0.07
fold change (FC) (Homo sapiens): 0.19
fold change (FC) [2]: 0.45
fold change (FC) [3]: 0.03
inhibition [4]: 12%
SMILES: CNC(=O)c1ccccc1Oc1nc(Nc2cc(OC)c(OC)c(OC)c2)ncc1Br

inhibition [5]: 0%
inhibition [6]: 2%
inhibition [7]: 18%
fold change (FC) [8]: 0
inhibition [9]: 3%
SMILES: O=C(N[C@@H](C1CC1)C(F)(F)F)c1cc(-c2cnn3cc(-c4ccc(F)cc4)cnc23)cs1

inhibition [10]: 11%
inhibition [11]: 1%
inhibition [12]: 0%
SMILES: CC(C)[C@H](NC(=O)c1cc(-c2cnn3cc(-c4ccc(OCCN5CCCCC5)cc4)cnc23)cs1)C(F)(F)F
